Legend:
[1] = target: wild-type EZH2 (PRC2 enzyme) (Homo sapiens (Human), UniProt Q15910); assay: PRC2 enzyme assay on peptide substrate (wild-type EZH2); format: biochemical; details: wild-type PRC2 4 nM, H3K27me0 peptide substrate, 3H-SAM; read-out: WT EZH2 IC50
From the text: S-adenosylmethionine (SAM), S-adenosylhomocyteine (SAH), bicine, KCl, Tween20, dimethylsulfoxide (DMSO) and bovine skin gelatin (BSG) were purchased from Sigma-Aldrich at the highest level of purity possible. Dithiothreitol (DTT) was purchased from EMD. ^3H-SAM was purchased from American Radiolabeled Chemicals with a specific activity of 80 Ci/mmol. 384-well streptavidin Flashplates were purchased from PerkinElmer.
Peptides representative of human histone H3 residues 21-44 containing either an unmodified lysine 27 (H3K27me0) or dimethylated lysine 27 (H3K27me2) were synthesized with a C-terminal G(K-biotin) linker-affinity tag motif and a C-terminal amide cap by 21st Century Biochemicals. The peptides were high-performance liquid chromatography (HPLC) purified to greater than 95% purity and confirmed by liquid chromatography mass spectrometry (LC-MS). The sequences are listed below.
Human PRC2 enzymes were purified as 4-component enzyme complexes co-expressed in Spodoptera frugiperda (sf9) cells using a baculovirus expression system. The subunits expressed were wild-type EZH2 (NM_004456) or EZH2 Y641F, N, H, S or C mutants generated from the wild-type EZH2 construct, EED (NM_003797), Suz12 (NM_015355) and RbAp48 (NM_005610). The EED subunit contained an N-terminal FLAG tag that was used to purify the entire 4-component complex from sf9 cell lysates. The purity of the complexes met or exceeded 95% as determined by SDS-PAGE and Agilent Bioanalyzer analysis. Concentrations of enzyme stock concentrations (generally 0.3-1.0 mg/mL) was determined using a Bradford assay against a bovine serum albumin (BSA) standard.
The assays were all performed in a buffer consisting of 20 mM bicine (pH=7.6), 0.5 mM DTT, 0.005% BSG and 0.002% Tween20, prepared on the day of use. […] The plates were then read in a PerkinElmer TopCount platereader to measure the quantity of ^3H-labeled peptide bound to the Flashplate surface, measured as disintegrations per minute (dpm) or alternatively, referred to as counts per minute (cpm). […]

[2] = test system: H3K27me3 in WSU-DLCL2 cells; assay: WSU-DLCL2 methylation assay (H3K27me3 ELISA); format: cell-based; details: Homo sapiens, WSUDLCL2, 96 hours incubation, H3K27me3 normalized to total H3
From the text: WSU-DLCL2 suspension cells were purchased from DSMZ (German Collection of Microorganisms and Cell Cultures, Braunschweig, Germany). RPMI/Glutamax Medium, Penicillin-Streptomycin, Heat Inactivated Fetal Bovine Serum, and D-PBS were purchased from Life Technologies, Grand Island, N.Y., USA. Extraction Buffer and Neutralization Buffer (5×) were purchased from Active Motif, Carlsbad, Calif., USA. Rabbit anti-Histone H3 antibody was purchased from Abcam, Cambridge, Mass., USA. Rabbit anti-H3K27me3 and HRP-conjugated anti-rabbit-IgG were purchased from Cell Signaling Technology, Danvers, Mass., USA. TMB “Super Sensitive” substrate was sourced from BioFX Laboratories, Owings Mills, Md., USA. IgG-free Bovine Serum Albumin was purchased from Jackson ImmunoResearch, West Grove, Pa., USA. PBS with Tween (10×PBST) was purchased from KPL, Gaithersburg, Md., USA. Sulfuric Acid was purchased from Ricca Chemical, Arlington, Tex., USA. Immulon ELISA plates were purchased from Thermo, Rochester, N.Y., USA. V-bottom cell culture plates were purchased from Corning Inc., Corning, N.Y., USA. V-bottom polypropylene plates were purchased from Greiner Bio-One, Monroe, N.C., USA.
WSU-DLCL2 suspension cells were maintained in growth medium (RPMI 1640 supplemented with 10% v/v heat inactivated fetal bovine serum and 100 units/mL penicillin-streptomycin) and cultured at 37° C. under 5% CO2. […]

Sequence of wild-type EZH2 (PRC2 enzyme) (Q15910 other isoform, or with tags, fused parts or gaps): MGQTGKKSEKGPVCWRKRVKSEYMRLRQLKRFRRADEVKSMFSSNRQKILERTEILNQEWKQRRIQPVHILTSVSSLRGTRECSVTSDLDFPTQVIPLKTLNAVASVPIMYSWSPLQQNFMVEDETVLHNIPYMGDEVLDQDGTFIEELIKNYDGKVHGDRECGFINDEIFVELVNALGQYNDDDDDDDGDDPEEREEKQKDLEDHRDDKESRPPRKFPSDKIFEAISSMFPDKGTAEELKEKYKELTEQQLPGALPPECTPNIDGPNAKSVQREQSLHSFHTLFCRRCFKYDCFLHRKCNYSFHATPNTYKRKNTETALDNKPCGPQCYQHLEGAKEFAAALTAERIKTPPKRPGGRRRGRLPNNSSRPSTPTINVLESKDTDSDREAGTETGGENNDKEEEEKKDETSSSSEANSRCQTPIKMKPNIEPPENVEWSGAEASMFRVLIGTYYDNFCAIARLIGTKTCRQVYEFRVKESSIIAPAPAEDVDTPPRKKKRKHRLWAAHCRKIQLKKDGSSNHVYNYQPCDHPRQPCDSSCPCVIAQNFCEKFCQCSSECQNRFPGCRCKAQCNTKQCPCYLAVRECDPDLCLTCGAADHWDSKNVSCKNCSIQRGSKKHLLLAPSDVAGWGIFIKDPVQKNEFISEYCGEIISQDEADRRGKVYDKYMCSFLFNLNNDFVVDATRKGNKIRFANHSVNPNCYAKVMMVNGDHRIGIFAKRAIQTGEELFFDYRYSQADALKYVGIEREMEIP
Sequence of wild-type EZH2 (PRC2 enzyme) (O75530 whole entry partner): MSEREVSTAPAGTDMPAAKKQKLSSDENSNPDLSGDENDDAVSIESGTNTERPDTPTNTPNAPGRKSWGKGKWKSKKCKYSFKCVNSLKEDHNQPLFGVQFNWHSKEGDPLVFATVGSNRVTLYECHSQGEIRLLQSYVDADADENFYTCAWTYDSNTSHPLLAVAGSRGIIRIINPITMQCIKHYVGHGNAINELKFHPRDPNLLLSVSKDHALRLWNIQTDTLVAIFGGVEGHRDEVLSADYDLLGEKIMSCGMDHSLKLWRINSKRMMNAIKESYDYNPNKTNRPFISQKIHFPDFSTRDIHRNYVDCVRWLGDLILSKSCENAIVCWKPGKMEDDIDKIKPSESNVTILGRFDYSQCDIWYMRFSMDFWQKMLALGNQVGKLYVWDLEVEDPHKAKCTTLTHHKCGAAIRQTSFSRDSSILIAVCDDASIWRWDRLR
Sequence of wild-type EZH2 (PRC2 enzyme) (Q15022 whole entry partner): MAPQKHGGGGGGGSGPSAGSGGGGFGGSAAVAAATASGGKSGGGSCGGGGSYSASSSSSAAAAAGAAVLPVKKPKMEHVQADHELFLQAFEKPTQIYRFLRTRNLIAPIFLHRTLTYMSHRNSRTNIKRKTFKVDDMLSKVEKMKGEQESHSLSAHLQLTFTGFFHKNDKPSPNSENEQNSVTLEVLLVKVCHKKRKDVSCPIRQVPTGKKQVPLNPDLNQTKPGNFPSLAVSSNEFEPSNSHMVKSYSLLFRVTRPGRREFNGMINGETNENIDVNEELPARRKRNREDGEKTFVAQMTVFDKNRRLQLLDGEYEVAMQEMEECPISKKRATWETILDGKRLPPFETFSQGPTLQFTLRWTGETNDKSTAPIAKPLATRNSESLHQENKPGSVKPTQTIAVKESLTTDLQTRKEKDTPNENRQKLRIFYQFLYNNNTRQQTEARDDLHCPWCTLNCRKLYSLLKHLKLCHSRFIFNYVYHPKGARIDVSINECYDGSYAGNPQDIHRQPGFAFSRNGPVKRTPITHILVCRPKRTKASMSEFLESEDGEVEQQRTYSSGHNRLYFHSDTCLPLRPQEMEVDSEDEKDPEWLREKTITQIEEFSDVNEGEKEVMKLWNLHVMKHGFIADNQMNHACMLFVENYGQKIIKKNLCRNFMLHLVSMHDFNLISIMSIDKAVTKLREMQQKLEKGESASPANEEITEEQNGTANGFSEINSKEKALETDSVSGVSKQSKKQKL
Sequence of wild-type EZH2 (PRC2 enzyme) (Q09028 whole entry partner): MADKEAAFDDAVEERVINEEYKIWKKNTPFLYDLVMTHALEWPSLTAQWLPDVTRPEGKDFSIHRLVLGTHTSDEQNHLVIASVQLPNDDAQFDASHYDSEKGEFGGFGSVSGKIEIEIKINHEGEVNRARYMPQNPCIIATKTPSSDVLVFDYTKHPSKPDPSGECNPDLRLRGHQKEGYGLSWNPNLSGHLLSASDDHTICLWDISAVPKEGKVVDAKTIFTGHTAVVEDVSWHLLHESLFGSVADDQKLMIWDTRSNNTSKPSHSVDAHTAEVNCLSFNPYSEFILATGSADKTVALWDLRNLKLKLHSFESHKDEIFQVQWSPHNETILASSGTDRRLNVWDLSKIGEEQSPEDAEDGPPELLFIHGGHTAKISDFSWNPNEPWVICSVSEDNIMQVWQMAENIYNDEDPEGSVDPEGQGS

IC50 [1] [µM]	SMILES	IC50 [2] [µM]
6.6	Cc1cc(=O)c(CNC(=O)c2cc(C3=CC(C)(C)NC(C)(C)C3)nc3c2cnn3C(C)C)c(C)[nH]1 [Compound 1, N-((2,6-dimethyl-4-oxo-1,4-dihydropyridin-3-yl)methyl)-1-isopropyl-6-(2,2,6,6-tetramethyl-1,2,3,6-tetrahydropyridin-4-yl)-1H-pyrazolo[3,4-b]pyridine-4-carboxamide]	
0.028	CCC(C)n1cc(C)c2c(C(=O)NCc3c(C)[nH]c(C)cc3=O)cc(-c3ccc(N4CCNCC4)nc3)cc21 (stereo not shown) [Compound 4, 1-(sec-butyl)-N-((2,6-dimethyl-4-oxo-1,4-dihydropyridin-3-yl)methyl)-3-methyl-6-(6-(piperazin-1-yl)pyridin-3-yl)-1H-indole-4-carboxamide]	11.9
7.1	Cc1cc(=O)c(CNC(=O)c2cc(C3CC(C)(C)NC(C)(C)C3)nc3c2cnn3C(C)C)c(C)[nH]1 [Compound 2, N-((2,6-dimethyl-4-oxo-1,4-dihydropyridin-3-yl)methyl)-1-isopropyl-6-(2,2,6,6-tetramethylpiperidin-4-yl)-1H-pyrazolo [3,4-b]pyridine-4-carboxamide]	

Reference: patent US10150759B2, “1,4-pyridone bicycic heteroaryl compounds” (Epizyme, Inc., priority 2012, dated 2018)
